From the supplement of paper PMC11208160

test: recombinant UMI read abundance after kanamycin selection (control-corrected) (log10(CPM+1)); higher = more efficient recombination; extreme values may be limits of the assay; sequences stand for … in AGTGCAGAGAAAATCGGCCAGTTTTCTCTGCCTGCAGTCCGCATGCCGTGGGACCCCTTGGGTTCTAACCTGTTGCCTAGATTTATGCAGCGGACTGCCTTTCTCCCAAAGTGATAAACCGG…AGGTTGGTTTCACT; site = the 11-nt donor
Summary of the method: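 Pooled Escherichia coli screen of donor and donor-binding-loop pairs for the IS621 bridge recombinase. Each pair sits with a 12-nt UMI on a plasmid carrying a promoterless kanamycin gene. The library was co-electroporated with a target plasmid encoding a fixed target and T7-inducible recombinase, then plated with IPTG (0.07 mM) plus kanamycin, or unselected, each in two replicates. Recombinant UMIs were PCR-amplified across the donor–target junction and sequenced. Counts became CPM, averaged over replicates, scaled by control-derived factors and reported as log10(CPM+1).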
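Further: IS621 bridge recombinase in Escherichia coli cells against a fixed T5 target plasmid.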

Sequence | recombinant UMI read abundance (log10)
CTACTAACATGGACCGGTTTTCCCGGTAATCCGTATTTGAA (site CTACTAACTTT) | 2.27
CTACTAACATGGACCGGTTTTCCCGGTAATCCGTATTTGGA (site ATACTAACTTC) | 0.387
CTACTAACATGGACCGGTTTTCCCGGTAATCCGTATTTGGA (site CAACTAACTTC) | 0.0111
CTACTAACATGGACCGGTTTTCCCGGTAATCCGTATTTGGA (site CCACTAACTTC) | 0.567
CTACTAACATGGACCGGTTTTCCCGGTAATCCGTATTTGGA (site CGACTAACTTC) | 0.339
CTACTAACATGGACCGGTTTTCCCGGTAATCCGTATTTGGA (site CTAATAACTTC) | 1.38
CTACTAACATGGACCGGTTTTCCCGGTAATCCGTATTTGGA (site CTACAAACTTC) | 0.00657
CTACTAACATGGACCGGTTTTCCCGGTAATCCGTATTTGGA (site CTACCAACTTC) | 0.307
CTACTAACATGGACCGGTTTTCCCGGTAATCCGTATTTGGA (site CTACGAACTTC) | 0.00735
CTACTAACATGGACCGGTTTTCCCGGTAATCCGTATTTGGA (site CTACTAACTAC) | 0.0107
CTACTAACATGGACCGGTTTTCCCGGTAATCCGTATTTGGA (site CTACTAACTCC) | 0.516
CTACTAACATGGACCGGTTTTCCCGGTAATCCGTATTTGGA (site CTACTAACTGC) | 0
CTACTAACATGGACCGGTTTTCCCGGTAATCCGTATTTGGA (site CTACTAACTTA) | 1.4
CTACTAACATGGACCGGTTTTCCCGGTAATCCGTATTTGGA (site CTACTAACTTC) | 1.69
CTACTAACATGGACCGGTTTTCCCGGTAATCCGTATTTGGA (site CTACTAACTTG) | 1.13
CTACTAACATGGACCGGTTTTCCCGGTAATCCGTATTTGGA (site CTACTAACTTT) | 1.96
CTACTAACATGGACCGGTTTTCCCGGTAATCCGTATTTGGA (site CTACTACCTTC) | 0.0182
CTACTAACATGGACCGGTTTTCCCGGTAATCCGTATTTGGA (site CTACTAGCTTC) | 0.689
CTACTAACATGGACCGGTTTTCCCGGTAATCCGTATTTGGA (site CTACTATCTTC) | 1.4
CTACTAACATGGACCGGTTTTCCCGGTAATCCGTATTTGGA (site CTACTCACTTC) | 0.0167
CTACTAACATGGACCGGTTTTCCCGGTAATCCGTATTTGGA (site CTACTGACTTC) | 0.00472
CTACTAACATGGACCGGTTTTCCCGGTAATCCGTATTTGGA (site CTACTTACTTC) | 0.176
CTACTAACATGGACCGGTTTTCCCGGTAATCCGTATTTGGA (site CTAGTAACTTC) | 0.141
CTACTAACATGGACCGGTTTTCCCGGTAATCCGTATTTGGA (site CTATTAACTTC) | 1.29
CTACTAACATGGACCGGTTTTCCCGGTAATCCGTATTTGGA (site CTCCTAACTTC) | 0.373

Sequence | recombinant UMI read abundance (log10)
CTACTAACATGGACCGGTTTTCCCGGTAATCCGTATTTGGA (site CTGCTAACTTC) | 0.331
CTACTAACATGGACCGGTTTTCCCGGTAATCCGTATTTGGA (site CTTCTAACTTC) | 0.11
CTACTAACATGGACCGGTTTTCCCGGTAATCCGTATTTGGA (site GTACTAACTTC) | 0.0739
CTACTAACATGGACCGGTTTTCCCGGTAATCCGTATTTGGA (site TTACTAACTTC) | 0.417
CTACTAGCATGGACCGGTTTTCCCGGTAATCCGTATTTGAC (site CTACTAGCTGT) | 2.64
CTACTAGCATGGACCGGTTTTCCCGGTAATCCGTATTTGAC (site CTAGTATCTGT) | 0
CTACTATCATGGACCGGTTTTCCCGGTAATCCGTATTTGAA (site CTACTATCTTT) | 2.45
CTACTATCATGGACCGGTTTTCCCGGTAATCCGTATTTGAA (site CTAGTATCTGT) | 0
CTACTCACATGGACCGGTTTTCCCGGTAATCCGTATTTGGA (site CTACTAACTTC) | 0.63
CTACTCACATGGACCGGTTTTCCCGGTAATCCGTATTTGGA (site CTACTCACTTC) | 2.16
CTACTCACATGGACCGGTTTTCCCGGTAATCCGTATTTGGA (site CTACTGACTTC) | 0.0219
CTACTCACATGGACCGGTTTTCCCGGTAATCCGTATTTGGA (site CTACTTACTTC) | 0.361
CTAGAAACATGGACCGGTTTTCCCGGTAATCCGTATTTGAC (site CTAGAAACTGT) | 2.76
CTAGAAACATGGACCGGTTTTCCCGGTAATCCGTATTTGAC (site CTAGTATCTGT) | 0.00659
CTAGAAACATGGACCGGTTTTCCCGGTAATCCGTATTTGCA (site CTAGAAACTTG) | 2.59
CTAGAAACATGGACCGGTTTTCCCGGTAATCCGTATTTGCA (site CTCGAAACTTG) | 0
CTAGAAACATGGACCGGTTTTCCCGGTAATCCGTATTTGCA (site CTGGAAACTTG) | 1.83
CTAGAAACATGGACCGGTTTTCCCGGTAATCCGTATTTGCA (site CTTGAAACTTG) | 0.422
CTAGAATCATGGACCGGTTTTCCCGGTAATCCGTATTTGAG (site CTAGAATCTCT) | 3.11
CTAGAATCATGGACCGGTTTTCCCGGTAATCCGTATTTGAG (site CTAGTATCTGT) | 0
CTAGACCCATGGACCGGTTTTCCCGGTAATCCGTATTTGGA (site CTAGACCCTTC) | 0.351
CTAGATTCATGGACCGGTTTTCCCGGTAATCCGTATTTGGA (site CTAGATTCTTC) | 2.84
CTAGCATCATGGACCGGTTTTCCCGGTAATCCGTATTTGCC (site CTAGCATCTGG) | 2.4
CTAGCATCATGGACCGGTTTTCCCGGTAATCCGTATTTGCC (site CTAGTATCTGT) | 0
CTAGCCACATGGACCGGTTTTCCCGGTAATCCGTATTTGGA (site GACCAATCTAA) | 0

Sequence | recombinant UMI read abundance (log10)
CTAGCTGCATGGACCGGTTTTCCCGGTAATCCGTATTTGTG (site ATAGCTGCTCA) | 0.0231
CTAGCTGCATGGACCGGTTTTCCCGGTAATCCGTATTTGTG (site CTAGCTGCTCA) | 1.75
CTAGCTGCATGGACCGGTTTTCCCGGTAATCCGTATTTGTG (site GTAGCTGCTCA) | 0.0102
CTAGCTGCATGGACCGGTTTTCCCGGTAATCCGTATTTGTG (site TTAGCTGCTCA) | 0.0211
CTAGCTTCATGGACCGGTTTTCCCGGTAATCCGTATTTGTG (site CTAGCTTCTCA) | 2.19
CTAGGTGCATGGACCGGTTTTCCCGGTAATCCGTATTTGAT (site CAAGGTGCTAT) | 1.59
CTAGGTGCATGGACCGGTTTTCCCGGTAATCCGTATTTGAT (site CCAGGTGCTAT) | 1.39
CTAGGTGCATGGACCGGTTTTCCCGGTAATCCGTATTTGAT (site CGAGGTGCTAT) | 0.0806
CTAGGTGCATGGACCGGTTTTCCCGGTAATCCGTATTTGAT (site CTAGGTGCTAT) | 2.14
CTAGTAACATGGACCGGTTTTCCCGGTAATCCGTATTTGAC (site CTAGTAACTGT) | 3.1
CTAGTAACATGGACCGGTTTTCCCGGTAATCCGTATTTGAC (site CTAGTACCTGT) | 0
CTAGTAACATGGACCGGTTTTCCCGGTAATCCGTATTTGAC (site CTAGTAGCTGT) | 2.73
CTAGTAACATGGACCGGTTTTCCCGGTAATCCGTATTTGAC (site CTAGTATCTGT) | 1.83
CTAGTCACATGGACCGGTTTTCCCGGTAATCCGTATTTGAC (site CTAGTATCTGT) | 0
CTAGTCACATGGACCGGTTTTCCCGGTAATCCGTATTTGAC (site CTAGTCACTGT) | 2.59
CTAGTTTCATGGACCGGTTTTCCCGGTAATCCGTATTTGAA (site CTAGTATCTGT) | 0
CTAGTTTCATGGACCGGTTTTCCCGGTAATCCGTATTTGAA (site CTAGTTTCTTT) | 1.85
CTAGTTTCATGGACCGGTTTTCCCGGTAATCCGTATTTGCC (site CTAGTATCTGT) | 0
CTAGTTTCATGGACCGGTTTTCCCGGTAATCCGTATTTGCC (site CTAGTTTCTGG) | 2.53
CTATAATCATGGACCGGTTTTCCCGGTAATCCGTATTTGCT (site CGATCATCTAG) | 0
CTATAATCATGGACCGGTTTTCCCGGTAATCCGTATTTGCT (site CTATAATCTAG) | 3.13
CTATATCCATGGACCGGTTTTCCCGGTAATCCGTATTTGAG (site CTATATCCTCT) | 1.41
CTATCCTCATGGACCGGTTTTCCCGGTAATCCGTATTTGCT (site CGATCATCTAG) | 0
CTATCCTCATGGACCGGTTTTCCCGGTAATCCGTATTTGCT (site CTATCCTCTAG) | 3.09
CTATCCTCATGGACCGGTTTTCCCGGTAATCCGTATTTGTT (site CTATCCTCTAA) | 2.79
